Laboratory results published in US20190336537A1, “GENERATING ATRIAL AND VENTRICULAR CARDIOMYOCYTE LINEAGES FROM HUMAN PLURIPOTENT STEM CELLS” (UNIVERSITY HEALTH NETWORK, priority 2016, published 2019).

Assays:
[1] = tested on: HES2 human embryonic stem cell derived EBs; test: ROH/RA response of HES2-derived EBs (day 20 flow cytometry and qRT-PCR); assay type: cell-based; details: treated days 3 to 5
Excerpt: (§1) To determine if the approach for optimizing atrial and ventricular differentiation based on ALDH activity and CD235a expression is broadly applicable, we next used it to generate these cardiomyocyte populations from the HES2 human embryonic stem cell and the MSC-iPS1 induced pluripotent stem cell lines. Titration studies identified 5B/2A and 5B/6A as optimal for atrial and ventricular inductions, respectively, for HES2 cells and 4B/4A as optimal for ventricular induction for MSCiPSC1 cells (FIGS. 7A, 7B, 7E, and 7F; Mendeley http://dx.doi.org/10.17632/7z7d5v2c3w.1). Optimization of atrial induction from the MSC-iPSC1 cells was more challenging, as all cytokine combinations promoted the development of a substantial CD235a+ population. One interpretation of these patterns is that the MSC-iPS1 cells have a high level of endogenous Nodal/Activin A signaling, resulting in the development of some CD235a+ cells under all conditions. To test this, we added the Nodal/Activin A/transforming growth factor beta (TGF-beta) inhibitor SB-431542 (SB) from days 3 to 5 to cells induced with 4B/1A.
(§2) For cardiac differentiation, we used a modified version of our embryoid body (EB)-based protocol (Kattman et al., 2011). hPSC populations at 80%-90% confluence were dissociated into single cells (TrypLE, ThermoFisher) and re-aggregated to form EBs in StemPro-34 media (ThermoFisher) containing penicillin/streptomycin (1%, ThermoFisher), L-glutamine (2 mM, ThermoFisher), trans-ferrin (150 μg/ml, ROCHE), ascorbic acid (50 μg/ml, Sigma), and monothioglycerol (50 μg/ml, Sigma), ROCK inhibitor Y-27632 (10 μM, TOCRIS) and rhBMP4 (1 ng/ml, R&D) for 18 h on an orbital shaker. At day 1, the EBs were transferred to mesoderm induction media consisting of StemPro-34 with above supplements (-ROCK inhibitor Y-27632) and rhBMP4, rhActivinA (R&D) and rhbFGF (5 ng/ml, R&D) at the indicated concentrations. At day 3, the EBs were harvested, washed with IMDM and transferred to cardiac mesoderm specification media consisting of StemPro-34, the Wnt inhibitor IWP2 (1 μM, TOCRIS) and rhVEGF (10 ng/mL, R&D). At day 5, the EBs were transferred to Stem Pro-34 with rhVEGF (5 ng/ml) for another 7 days and then to Stem Pro-34 media without additional cytokines for further 8 days. At day 20, HES3-NKX2-5gfp/w-derived cardiomyocytes were analyzed and isolated based on the expression of NKX2-5:GFP and SIRPa and a lack of CD90. Cardiomyocytes generated from non-transgenic hPSC lines were analyzed and isolated as SIRPa+CD90− populations. Media was changed every 3 days. Cultures were incubated in a low oxygen environment (5% CO2, 5% O2, 90% N2) for first 12 days and a normoxic environment (5% CO2) for the following 8 days in total of 20 days. […]

[2] = tested on: HES3 NKX2-5:GFP hESC-derived mesoderm; test: Specification of mesoderm populations to an atrial fate by ROH or RA (day 20 flow cytometry and qRT-PCR); assay type: cell-based, human; details: day 4, 5B/4A induced
[3] = tested on: MSC-iPS1 induced pluripotent stem cell line derived EBs; test: ROH/RA response of MSC-iPS1-derived EBs (day 20 flow cytometry and qRT-PCR); assay type: cell-based, human; details: treated days 3 to 5
Excerpt: as §1, §2

[4] = tested on: HES3 NKX2-5:GFP reporter hESC line derived cardiomyocytes; test: qRT-PCR analysis of atrial and ventricular gene expression in day 20 hPSC-derived cardiomyocytes; assay type: cell-based, human

CC1=C(/C=C/C(C)=C/C=C/C(C)=C/C(=O)O)C(C)(C)CCC1 [RA, all trans retinoic acid]
response of ALDH+ mesoderm (atrial expression profile) ([1]; HES2, 5B/2A induced): responded to both ROH and RA | response of CD235a+ mesoderm (MLC2V content, MYL2, IRX4, KCNJ3, NR2F2) ([1]; HES2, 5B/6A induced): both responded to RA | atrial specification (MLC2V+, IRX4, NPPA, KCNJ3, NR2F2) ([2]; CD235a+ALDH− fraction): responded to RA | atrial specification (MLC2V+, IRX4, NPPA, KCNJ3, NR2F2) ([2]; CD235a−ALDH+ fraction): responded to RA | response of ALDH+ mesoderm (atrial expression profile) ([3]; MSC-iPS1, 4B/1A+SB induced): responded to both ROH and RA | response of CD235a+ mesoderm (MLC2V content, MYL2, IRX4, KCNJ3, NR2F2) ([3]; MSC-iPS1, 4B/4A induced): both responded to RA | expression of KCNJ3, CACNA1D and NR2F2 in VI versus AI cardiomyocytes ([4]; 4 mM RA): Comparable expression levels | expression of ventricular genes MYL2 and IRX4 in the VI population ([4]; RA 1-2 mM): completely suppress | expression of MYL2 and KCNJ3 ([4]; RA added at later stages (days 7 and 12)): no effect | expression level of KCNA5 in cardiomyocytes from VI EBs ([4]; RA increased from 0.5 to 1-2 mM): did increase | expression of KCNJ3, CACNA1D and NR2F2 in VI cardiomyocytes to levels of AI cells ([4]; RA up to 2 mM): failed to increase
